Experiment [1] relates to HeLa. The experiment in a line: Cytotoxicity against human HeLa cells by MTT assay. It counts as functional, cell-based.
Experiment [2] relates to MCF7. The experiment in a line: Cytotoxicity against human MCF7 cells by MTT assay. Format: functional, cell-based. A general note: Tetrazolium dyes change colour on reduction, which living cells bring about.

In the case of `COc1ccc(/C=C\c2cc(OC)c(OC)c(OC)c2)cc1N`, the IC50 (usually the concentration that gives 50% inhibition) in experiment [1] (Homo sapiens, HeLa) turned out to be 0.53 nM; in experiment [2] (Homo sapiens, MCF7) it was 3.5 nM.

Regarding `COc1ccc(C#Cc2cc(OC)c(OC)c(OC)c2)cc1O`, the IC50 came to 1540 nM in experiment [1] (Homo sapiens, HeLa) and 1640 nM in experiment [2] (Homo sapiens, MCF7).

Regarding `COCOc1cc(C#Cc2cc(OC)c(OC)c(OC)c2)ccc1OC`, the IC50 in experiment [1] (Homo sapiens, HeLa) came to 26800 nM; in experiment [2] (Homo sapiens, MCF7), 25600 nM.

Regarding `COc1ccc(C2CC2c2cc(OC)c(OC)c(OC)c2)cc1NC(=O)[C@@H](N)CO` (stereo not given in full) [listing 1 of 2 here], the IC50 in experiment [1] (hela) was determined as 32 nM; in experiment [2] (mcf7), 63 nM.

Turning to `COc1ccc(C2CC2c2cc(OC)c(OC)c(OC)c2)cc1NC(=O)OC(C)(C)C` (stereo not given), the IC50 was determined as 10100 nM in experiment [1] (Homo sapiens, HeLa) and 11800 nM in experiment [2] (Homo sapiens, MCF7).

Regarding `COc1ccc(C#Cc2cc(OC)c(OC)c(OC)c2)cc1NC(=O)OC(C)(C)C`, the IC50 in experiment [1] (Homo sapiens, HeLa) is above 30000 nM; in experiment [2] (Homo sapiens, MCF7), above 30000 nM.

In the case of `COc1ccc(C2CC2c2cc(OC)c(OC)c(OC)c2)cc1OP(=O)(OCc1ccccc1)OCc1ccccc1` (stereo not given), the IC50 in experiment [1] (Homo sapiens, HeLa) worked out at 10200 nM; in experiment [2] (Homo sapiens, MCF7) it was 10800 nM.

As for `COc1ccc(/C=C\c2cc(OC)c(OC)c(OC)c2)cc1OP(=O)(OCc1ccccc1)OCc1ccccc1`, the IC50 came to 246 nM in experiment [1] (Homo sapiens, HeLa) and 1170 nM in experiment [2] (Homo sapiens, MCF7).

For the molecule `COCOc1cc(C2CC2c2cc(OC)c(OC)c(OC)c2)ccc1OC` (stereo not given), the IC50 in experiment [1] (Homo sapiens, HeLa) came out at 24000 nM; in experiment [2] (Homo sapiens, MCF7), 14000 nM.

Take `COc1ccc(/C=C\c2cc(OC)c(OC)c(OC)c2)cc1NC(=O)OC(C)(C)C`: the IC50 in experiment [1] (Homo sapiens, HeLa) was 1170 nM; in experiment [2] (Homo sapiens, MCF7) it was 3850 nM.

As for `COc1ccc(C2CC2c2cc(OC)c(OC)c(OC)c2)cc1N` (stereo not given), the IC50 in experiment [1] (Homo sapiens, HeLa) is 41 nM; in experiment [2] (Homo sapiens, MCF7), 212 nM.

In the case of `COCOc1cc(/C=C\c2cc(OC)c(OC)c(OC)c2)ccc1OC`, the IC50 in experiment [1] (Homo sapiens, HeLa) came out at 197 nM; in experiment [2] (Homo sapiens, MCF7), 269 nM.

With `COc1ccc(C#Cc2cc(OC)c(OC)c(OC)c2)cc1N`, the IC50 in experiment [1] (Homo sapiens, HeLa) was above 30000 nM; in experiment [2] (Homo sapiens, MCF7) it was above 30000 nM.

`COc1ccc([C@@H]2C[C@@H]2c2cc(OC)c(OC)c(OC)c2)cc1O`: the IC50 in experiment [1] (Homo sapiens, HeLa) was determined as 28 nM; in experiment [2] (Homo sapiens, MCF7) it was 102 nM.

Regarding `COc1ccc(C2CC2c2cc(OC)c(OC)c(OC)c2)cc1NC(=O)[C@@H](N)CO` (stereo not given in full) [listing 2 of 2 here], the results for the IC50 in experiment [1] (hela) and in experiment [2] (mcf7) were 432 nM and 670 nM, respectively.

For the molecule `COc1ccc(C2CC2c2cc(OC)c(OC)c(OC)c2)cc1OP(=O)(O)O` (stereo not given), the IC50 in experiment [1] (Homo sapiens, HeLa) worked out at 370 nM; in experiment [2] (Homo sapiens, MCF7) it was 297 nM.

`COc1ccc(/C=C\c2cc(OC)c(OC)c(OC)c2)cc1NC(=O)[C@@H](N)CO`: the results for the IC50 in experiment [1] (hela) and in experiment [2] (mcf7) were 3.7 nM and 25 nM, respectively.

Consider `COc1ccc(/C=C\c2cc(OC)c(OC)c(OC)c2)cc1O` [COMBRETASTATIN A4], for which the IC50 was 0.51 nM in experiment [1] (Homo sapiens, HeLa) and 2.4 nM in experiment [2] (Homo sapiens, MCF7).

On to `COc1ccc(/C=C\c2cc(OC)c(OC)c(OC)c2)cc1OP(=O)(O)O` [FOSBRETABULIN DISODIUM], for which the concentration for half-maximal inhibition (IC50) in experiment [1] (Homo sapiens, HeLa) is 0.43 nM; in experiment [2] (Homo sapiens, MCF7) it was 2 nM.

Take `COc1ccc(/C=C\c2cc(OC)c(OC)c(OC)c2)cc1NC(=O)[C@@H](N)CO` [OMBRABULIN]: the IC50 is 0.72 nM in experiment [1] (hela) and 3.1 nM in experiment [2] (mcf7).

The values are drawn from ChEMBL document CHEMBL1156140, “Synthesis and antitumor-evaluation of cyclopropyl-containing combretastatin analogs” (Bioorg Med Chem Lett, 2009).
